From paper PMC8625207, “Antikinetoplastid Activity of Sesquiterpenes Isolated from the Zoanthid Palythoa aff. clavata” (Pharmaceuticals, 2021)

Experiments:
[1] = system: epimastigotes of Trypanosoma cruzi (Y strain); experiment: alamarBlue activity against epimastigotes of T. cruzi; type: cell-based; conditions: for IC50: Trypanosoma cruzi, 72 h of incubation, mean with standard deviation; for Epimastigotes T. cruzi SI: selectivity index CC50/IC50
Experimental: (§1) For the anti-leishmanicidal experiments, promastigotes and amastigotes of Leishmania amazonensis strain (MHOM/BR/77/LTB0016) and promastigotes of Leishmania donovani strain (MHOM/IN/90/GE1F8R) were used, and they were maintained in RPMI 1640 medium (Gibco, Waltham, MA, USA) at 26 °C. For the trypanocidal experiments, epimastigotes of Trypanosoma cruzi (Y strain) were used, and they were maintained in liver infusion tryptose (LIT) medium supplemented with 10% of fetal bovine serum (FBS) at 26 °C. Murine macrophages J774A.1 (ATCC #TIB-67), maintained in DMEM medium at 37 °C with 5% CO2, were used for the cytotoxic activity assays.
(§2) For the activity against extracellular parasites of kinetoplastid, Leishmania and Trypanosoma parasites, in a 96-well plate, serial dilutions of the compounds were added with dilutions of 10^5 parasites per well and a 10% of alamarBlue Cell Viability Reagent® (Thermo Fisher Scientific, Waltham, MA, USA). After 72 h of incubation at 26 °C, the fluorescence of each well was measured in the EnSpire Multimode Plate Reader® (PerkinElmer, Thermo Fisher Scientific, Madrid, Spain). The inhibitory concentration 50 (IC50) was calculated by nonlinear regression analysis.

[2] = system: amastigotes of L. amazonensis; experiment: alamarBlue activity against intracellular amastigotes of L. amazonensis in murine macrophages; type: cell-based, Leishmania amazonensis; conditions: for IC50: Leishmania amazonensis, Macrophage, 24 h of incubation, intracellular form in murine macrophages; for Amastigotes L. amazonensis SI: selectivity index CC50/IC50
Experimental: as §1
To determinate the IC50 against the intracellular form of the parasite amastigotes of L. amazonensis, the alamarBlue colorimetric method was also used. In a 96-well plate, murine macrophages were added in a concentration of 10^4 cells per well. After adherence of the cells, 10^5 promastigotes of the parasite were added to reach 1:10 cell:parasites per well. After 24 h of incubation at 37 °C with 5% of CO2 for the internalization of the parasite, the wells were washed, and serial dilutions of the compounds were added. After an incubation of 24 h with the compounds, the wells were washed, and the macrophages were broken with a solution of SDS (Sodium dodecyl sulfate) at 0.05% for 30 s. After adding fresh RPMI medium, we added 10% of alamarBlue, and the plates were incubated at 26 °C for 96 h. Finally, the fluorescence was measured by using the EnSpire Multimode Plate Reader® (PerkinElmer, Thermo Fisher Scientific, Madrid, Spain), and the IC50 of each compound was calculated.

[3] = system: promastigotes of Leishmania donovani strain (MHOM/IN/90/GE1F8R); experiment: alamarBlue activity against promastigotes of L. donovani; type: cell-based; conditions: for IC50: Leishmania donovani, 72 h of incubation, mean with standard deviation; for Promastigotes L. donovani SI: selectivity index CC50/IC50 (macrophages J744A.1 vs parasite)
Experimental: as §1, §2

[4] = system: promastigotes of Leishmania amazonensis strain (MHOM/BR/77/LTB0016); experiment: alamarBlue activity against promastigotes of L. amazonensis; type: cell-based; conditions: for IC50: Leishmania amazonensis, 72 h of incubation, mean with standard deviation; for Promastigotes L. amazonensis SI: selectivity index CC50/IC50
Experimental: as §1, §2

[5] = system: promastigotes of L. donovani; experiment: Chromatin condensation, Hoechst 33342/propidium iodide; type: cell-based, Leishmania donovani; conditions: IC90, 24 h
[6] = alamarBlue cytotoxicity on murine macrophages; type: cell-based; conditions: mouse, J774A.1 macrophages; 24 h of incubation; read-out: Macrophages J744A.1 CC50
[7] = system: promastigotes of L. donovani
L. amazonensis = experiment: Mitochondrial membrane potential, JC-1; type: cell-based, Leishmania amazonensis; conditions: IC90, 24 h
Experimental: The alterations on the mitochondrial membrane potential were measured by using JC-1® reagent. The results were expressed in percentage of variations in the mitochondrial membrane potential relative to the untreated control.
The alterations in the mitochondrial membrane potential were determined by using the JC-1 Mitochondrial Membrane Potential Assay Kit® (Cayman Chemical, Ann Arbor, MI, USA). […] Finally, using the EnSpire Multimode Plate Reader® (PerkinElmer, Thermo Fisher Scientific, Madrid, Spain), we measured the fluorescence, and the results were expressed in the percentage relative to the negative control (without any treatment), using the ratio 595 nm/535 nm (aggregates/monomers). All of the experiments were performed in triplicate in three different days (n = 3).

[8] = system: promastigotes of L. amazonensis; experiment: Plasmatic membrane permeability, SYTOX Green; type: cell-based, Leishmania amazonensis; conditions: IC90, 24 h
[9] = system: promastigotes of L. amazonensis; experiment: Reactive oxygen species detection, CellROX Deep Red; type: cell-based, Leishmania amazonensis; conditions: IC90, 24 h
[10] = system: promastigotes of L. amazonensis; experiment: Chromatin condensation, Hoechst 33342/propidium iodide; type: cell-based, Leishmania amazonensis; conditions: IC90, 24 h

Row | Compound | IC50 [1] | Epimastigotes T. cruzi SI [1] | IC50 [2] | Amastigotes L. amazonensis SI [2] | IC50 [3] | Promastigotes L. donovani SI [3] | IC50 [4] | Promastigotes L. amazonensis SI [4] | Chromatin condensation [5] | CC50 at 24 h [6] | Plasmatic membrane permeability [7] | Amastigotes L. amazonensis SI ([2]; listed as 4β-hydroxyarbusculin A (11)) | Mitochondrial membrane potential relative to the negative control (L. amazonensis) | Plasmatic membrane permeability [8] | Reactive oxygen species detection [9] | Chromatin condensation [10]
1 | C=C1C(=O)OC2C=C(C)CCC=C(COC(C)=O)CCC12 (mixture of isomers) [cis,trans-costunolide-14-acetate (3), cis,trans-costunolide-14-acetate] | 8.88 ± 0.91 µM | 5.75 | 24.6 ± 3.64 µM | 2.08 | 5.41 ± 1.28 µM | 9.43 | 8.62 ± 1 µM | 5.92 | blue and red fluorescence was produced | 51 ± 7.54 µM | increase on the plasmatic membrane permeability | – | – | – | – | –
2 | C=C1C(=O)O[C@@H]2[C@@H]3[C@@](C)(CC[C@@H]12)[C@H](O)CC[C@]3(C)O [4b-Hydroxyarbusculin A (11), 4β-hydroxyarbusculin A] | > 201 µM | – | 15.8 ± 1.01 µM | >25.47 | > 201 µM | – | 76.4 ± 5.72 µM | >5.27 | – | > 403 µM | – | > 25.47 | 40.99% | increase on the plasmatic membrane permeability | presence of red fluorescence | induced chromatin condensation
3 | C=C1CCC2C(=C)C(=O)OC2C=C(C)CCC1O (stereo not shown) [Artemorin (1), artemorin] | 81 ± 12 µM | >4.97 | 40.1 ± 3.44 µM | >10.04 | > 201 µM | – | 40.9 ± 2.82 µM | >9.85 | – | > 403 µM | – | – | – | – | – | –
4 | O=C(Cn1ccnc1[N+](=O)[O-])NCc1ccccc1 [Benznidazole, reference compound] | – | – | – | – | – | – | – | – | – | > 1540 µM | – | – | – | – | – | –
5 | C=C1C(=O)O[C@H]2CC(=C)[C@H]3CCC(=C)[C@@H](O3)[C@@H](O)[C@H]12 [Dehydroxyisobadgerin (9), dehydroxyisobadgerin] | 59.8 ± 9.76 µM | 0.84 | – | – | 34 ± 3.32 µM | 1.47 | 25.5 ± 3.2 µM | 1.96 | – | 50 ± 13.1 µM | – | – | – | – | – | –
6 | C=C1C(=O)O[C@H]2CC(=C)[C@H]3CC[C@@](C)(O)[C@@H](O3)[C@@H](O)[C@H]12 [Isobadgerin (8), isobadgerin] | > 89.2 µM | <1.01 | – | – | > 89.2 µM | <1.01 | > 89.2 µM | <1.01 | – | 89.7 ± 3.92 µM | – | – | – | – | – | –
7 | CCCCCCCCCCCCCCCCOP(=O)([O-])OCC[N+](C)(C)C [Miltefosine, reference compound] | – | – | – | 23.17 | – | 21.74 | – | 11.14 | – | 72.2 ± 3.06 µM | – | – | – | – | – | –
8 | C=C1CC[C@@H](C(C)C)/C=C/[C@@](C)(O)CC[C@H]1O [Nephthediol (10), (−) nephthediol] | > 105 µM | <0.22 | – | – | > 105 µM | <0.22 | > 105 µM | <0.22 | – | 23.58 ± 0.21 µM | – | – | – | – | – | –
9 | C=C1CC[C@@H](O)[C@]2(C)CC[C@H]3C(=C)C(=O)O[C@@H]3[C@@H]12 [Reynosin (13), reynosin] | 58.2 ± 13.1 µM | 1.34 | – | – | > 201 µM | <0.39 | 40.2 ± 8.78 µM | 1.94 | – | – | – | – | – | – | – | –
10 | C=C1C(=O)O[C@@H]2[C@H]3C(C)=CC[C@@H](O)[C@]3(C)CC[C@@H]12 [Santamarine (12), santamarine] | 9.74 ± 2.68 µM | 7.91 | – | – | 12.1 ± 4.67 µM | 6.35 | > 101 µM | <0.77 | – | – | – | – | – | – | – | –
11 | C=C1C[C@@H]2OC(=O)C(=C)[C@H]2[C@H](O)/C=C(\C)CCC1=O [Tamirin (7), Tamirin] | > 69 µM | <0.34 | – | – | 4.13 ± 1.25 µM | 5.65 | 11.7 ± 2.52 µM | 1.99 | – | 23.3 ± 1.27 µM | – | – | – | – | – | –
12 | C=C1C(=O)O[C@H]2CC(=C)[C@@H](O)CC/C(C)=C/[C@@H](O)[C@H]12 [Tanachin (6), tanachin] | > 94.6 µM | <1.05 | – | – | > 94.6 µM | <1.05 | > 94.6 µM | <1.05 | – | 99.2 ± 4.43 µM | – | – | – | – | – | –
13 | C=C1C(=O)O[C@@H]2/C=C(\C)[C@H](O)CC/C(C)=C/[C@H](O)[C@@H]12 [Tatridin A (4), tatridin A] | > 94.6 µM | <0.34 | – | – | > 94.6 µM | <0.34 | > 94.6 µM | <0.34 | – | 32.4 ± 6.55 µM | – | – | – | – | – | –
14 | C=C1C(=O)O[C@@H]2/C=C(\C)[C@H](O)CC/C(C)=C/[C@H](OC(C)=O)[C@@H]12 [Tatridin A acetate (5), tatridin A acetate] | > 81.6 µM | <0.24 | – | – | > 81.6 µM | <0.24 | > 81.6 µM | <0.24 | – | 19.3 ± 0.91 µM | – | – | – | – | – | –
